In brackets after ≈: the same amount, converted by molar mass.
Key:
RKO = assay: Antiproliferative activity against human RKO cells assessed as reduction in cell viability by MTT assay; type: functional, cell-based
HepG2 = assay: Antiproliferative activity against human HepG2 cells assessed as reduction in cell viability by MTT assay; type: functional, cell-based
Staphylococcus aureus [1] = assay: Antibacterial activity against Staphylococcus aureus ATCC […] by CLSI based two-fold serial dilution method; type: functional; details: ATCC 29213
Bacillus subtilis = assay: Antibacterial activity against Bacillus subtilis BS01 by CLSI based two-fold serial dilution method; type: functional
Staphylococcus aureus [2] = assay: Antibacterial activity against Staphylococcus aureus 745524 by CLSI based two-fold serial dilution method; type: functional
L02 = assay: Cytotoxicity against human L02 cells assessed as reduction in cell viability by MTT assay; type: cell-based
Enterococcus faecalis = assay: Antimicrobial activity against Enterococcus faecalis ATCC 29212 by CLSI based two-fold serial dilution method; type: functional
MCF7 = assay: Antiproliferative activity against human MCF7 cells assessed as reduction in cell viability by MTT assay; type: functional, cell-based
A549 = assay: Antiproliferative activity against human A549 cells assessed as reduction in cell viability by MTT assay; type: functional, cell-based
HeLa = assay: Antiproliferative activity against human HeLa cells assessed as reduction in cell viability by MTT assay; type: functional, cell-based
Bacillus thuringiensis = assay: Antibacterial activity against Bacillus thuringiensis BT01 by CLSI based two-fold serial dilution method; type: functional
[3] = Cytotoxicity against HUVEC12 assessed as reduction in cell viability by MTT assay; details: Homo sapiens
Staphylococcus aureus [4] = assay: Antibacterial activity against methicillin-resistant Staphylococcus aureus shhs-A1 by CLSI based two-fold serial dilution method; type: functional
MGC-803 = assay: Antiproliferative activity against human MGC803 cells assessed as reduction in cell viability by MTT assay; type: functional, cell-based

| SMILES | IC50 (RKO) [µM] | IC50 (HepG2) [µM] | MIC (Staphylococcus aureus [1]) [µg/mL] | MIC (Bacillus subtilis) [µg/mL] | MIC (Staphylococcus aureus [2]) [µg/mL] | IC50 (L02) [µM] | MIC (Enterococcus faecalis) [µg/mL] | IC50 (MCF7) [µM] | IC50 (A549) [µM] | IC50 (HeLa) [µM] | MIC (Bacillus thuringiensis) [µg/mL] | IC50 [3] [µM] | MIC (Staphylococcus aureus [4]) [µg/mL] | IC50 (MGC-803) [µM] |
| --- | --- | --- | --- | --- | --- | --- | --- | --- | --- | --- | --- | --- | --- | --- |
| CSC1=C2C3=CC(=O)C(O)=C2[C@@H]2O[C@H](CC[C@H](C)/C=C(\C)C[C@@H](C)C[C@H](C)[C@]1(O)O3)[C@H](C)[C@H](O)[C@H]2C | 3.8 | 6.7 | 0.5 (≈ 0.964 µM) | 2 (≈ 3.86 µM) | 1 (≈ 1.93 µM) | 2.2 | 0.5 (≈ 0.964 µM) | 2.3 | 6.8 | 5.4 | 0.5 (≈ 0.964 µM) | 6 | 1 (≈ 1.93 µM) | 8.9 |
| C/C1=C\[C@@H](C)CC[C@H]2O[C@@H](C3=C(O)C(=O)C=C4O[C@](O)(C=C43)[C@@H](C)C[C@H](C)C1)[C@H](C)[C@@H](O)[C@H]2C | 6.1 | 22 | 0.5 (≈ 1.06 µM) | 2 (≈ 4.23 µM) | 1 (≈ 2.12 µM) | 7.4 | 2 (≈ 4.23 µM) | 5.1 | 8 | 4.9 | 1 (≈ 2.12 µM) | 6 | 2 (≈ 4.23 µM) | 3.3 |
| CC(=O)N[C@@H](CSC1=C2C3=CC(=O)C(O)=C2[C@@H]2O[C@H](CC[C@H](C)/C=C(\C)C[C@@H](C)C[C@H](C)[C@]1(O)O3)[C@H](C)[C@H](O)[C@H]2C)C(=O)O | 34 | 44 | 1 (≈ 1.58 µM) | 8 (≈ 12.6 µM) | 2 (≈ 3.16 µM) | 6.2 | 4 (≈ 6.31 µM) | 13 | 26 | 7.1 | 2 (≈ 3.16 µM) | > 50 | 4 (≈ 6.31 µM) | 7.1 |
| CC1(C)S[C@@H]2[C@H](NC(=O)[C@H](N)c3ccccc3)C(=O)N2[C@H]1C(=O)O [AMPICILLIN] | – | – | 2 (≈ 5.72 µM) | 0.25 (≈ 0.715 µM) | – | – | 2 (≈ 5.72 µM) | – | – | – | 32 (≈ 91.6 µM) | – | 1 (≈ 2.86 µM) | – |
| COc1cccc2c1C(=O)c1c(O)c3c(c(O)c1C2=O)C[C@@](O)(C(=O)CO)C[C@@H]3O[C@H]1C[C@H](N)[C@H](O)[C@H](C)O1 [DOXORUBICIN] | 1.5 | 0.7 | – | – | – | 8.6 | – | 0.8 | – | 0.8 | – | 7.2 | – | 3.6 |
| NC[C@H]1O[C@H](O[C@H]2[C@H](O)[C@@H](O[C@H]3O[C@H](CO)[C@@H](O)[C@H](N)[C@H]3O)[C@H](N)C[C@@H]2N)[C@H](O)[C@@H](O)[C@@H]1O [KANAMYCIN] | – | – | 16 (≈ 33 µM) | 8 (≈ 16.5 µM) | 64 (≈ 132 µM) | – | 32 (≈ 66 µM) | – | – | – | 8 (≈ 16.5 µM) | – | 64 (≈ 132 µM) | – |
| CN[C@H](CC(C)C)C(=O)N[C@H]1C(=O)N[C@@H](CC(N)=O)C(=O)N[C@H]2C(=O)N[C@H]3C(=O)N[C@H](C(=O)N[C@H](C(=O)O)c4cc(O)cc(O)c4-c4cc3ccc4O)[C@H](O)c3ccc(c(Cl)c3)Oc3cc2cc(c3O[C@@H]2O[C@H](CO)[C@@H](O)[C@H](O)[C@H]2O[C@H]2C[C@](C)(N)[C@H](O)[C@H](C)O2)Oc2ccc(cc2Cl)[C@H]1O [VANCOMYCIN] | – | – | – | 1 (≈ 0.69 µM) | – | – | – | – | – | – | 2 (≈ 1.38 µM) | – | – | – |

Reference: ChEMBL document CHEMBL4414662, “Cytotoxic Kendomycins Containing the Carbacylic Ansa Scaffold from the Marine-Derived Verrucosispora sp. SCSIO 07399” (J Nat Prod, 2019)
